Laboratory results published in patent publication US9012190B2, “Use of thiamine and nicotine adenine dinucleotide for butanol production” (Butamax Advanced Biofuels LLC, priority 2011, dated 2015).

Legend:
[1] = test system: isobutanol producing NYLA84 strain; test: Shake flask fermentation with addition of thiamine or yeast extract (Example 1); type: cell-based, Saccharomyces cerevisiae
Procedure: The medium contained the following ingredients per L of water: 6.7 g Yeast Nitrogen Base (YNB) w/o amino acids (Difco 0919-15-3); 2.8 g Yeast Synthetic Drop-out Medium Supplement Without histidine, leucine, tryptophan, and uracil (Sigma Y2001); 20 mL of 1% (w/v) L-leucine; 4 mL of 1% (w/v) L-tryptophan; 5 g ethanol; 3 g glucose; and 1.0 mL of the ergosterol and Tween 80. In order to obtain 10 mL ergosterol and Tween 80 solution, 100 mg of ergosterol were dissolved in 5 mL 100% EtOH and 5 mL Tween 80 and then heated until sterile and dissolved (10 min at 70° C.).
In the shake flask experiments described, the following were added to 125 mL shake flasks: 16 mL of the culture broth; 2 mL of the 1 M MES buffer; and 2 mL of the addition (H2O, YE, TH). The following additions were prepared: yeast extract (YE, final concentration 10 g/L); thiamine (TH, final concentration 6, 60, and 100 mg/L).
In order to provide the culture broth, seed cultures were started in 125 mL shake flasks with air permeable lids (10 mL medium inoculated with 1 mL inoculum from a frozen vial). […] The OD was measured at λ=600 nm (Spectrophotometer from Thermo Electron Corporation Heλios Alpha, USA). […] Ergosterol and Tween 80 was added to the medium to a final concentration of 1 mL/L. Seed (10 mL) was inoculated into 2 L shake flask with 135 mL of the medium. Separately, 2 mL of the H2O, YE, TH additions were added to new 125 ml shake flasks. Into the 2 L shake flask, 16 mL of 1 M MES buffer was added and 5.3 mL of 50% (w/w) glucose solution. Eighteen (18) mL of this culture broth was distributed into the 125 mL shake flasks with prepared additions. The aerobic shake flasks with air permeable lid were incubated at 30° C. and 260 rpm. The anaerobic shake flasks were treated in anaerobic hood and incubated at 30° C. and 260 rpm. The anaerobic shake flasks were sampled in the anaerobic hood.
The effect of thiamine on isobutanol production was analyzed using shake flask fermentation. Shake flask fermentations were performed under both aerobic and anaerobic conditions in the presence of water (negative control), yeast extract (YE, positive control, final concentration 10 g/L), or thiamine (TH, final concentration 100 mg/L) with isobutanol producing NYLA84 strain. The final biomass (X), isobutanol concentrations, and specific isobutanol production rates (qP) were measured and are shown in FIG. 1.

[2] = test system: isobutanol producing NYLA84 strain; test: Shake flask cultivations with nicotinic acid, vitamin solution or YEP (Example 6); type: cell-based, Saccharomyces cerevisiae
Procedure: (§1) The aerobic shake flasks with air permeable lid were incubated at 30° C. and 260 rpm.

[3] = test system: isobutanol producing NYLA 84 strain; test: Aerobic shake flask range finding with nicotinic acid (Example 7); type: cell-based, Saccharomyces cerevisiae; details: NA concentrations as low as 6 mg/L, all measurement points (2.00 h, 18.75 h, 24.5 h)
Procedure: The strain used in this Example was the isobutanol producing NYLA 84 strain, described elsewhere herein. Vitamin stock solution contained biotin, 50 mg/L; Ca-panthotenate, 1 g/L; nicotinic acid, 1 g/L; myo-inositol, 25 g/l; thiamine.HCl, 1 g/L; pyridoxine hydrochloride, 1 g/L; p-aminobenzoic acid, 0.2 g/L; riboflavin, 0.2 g/L; and folic acid, 2 mg/L. One liter (1 L) of ergosterol and Tween 80 stock solution contains 10 g of ergosterol dissolved in 500 mL 100% ethanol solution and 500 mL Tween 80.
Glucose and fermentation by-product analysis were determined by a Waters HPLC utilizing a Bio-Rad Aminex HPX-87H column with diode array (DA) operated at 210 nm and a refractive index (RI) detector at 50° C.
Several seed cultures inoculated each with a 1 mL glycerol frozen stock vial were grown in 10 mL base medium for 24 h. At the start of the range finding experiment, seed cultures were pooled and 16 mL each of the pooled seed culture were distributed into 125 mL shake flasks, 2 mL of 1 M MES buffer added, and additionally 2 mL of (a) bidestilled water, (b-d) nicotinic acid (NA) stock solutions with 60 mg/L, 600 mg/L and 1000 mg/L of NA dissolved in bidestilled water, respectively, and (e) YE stock solution with 200 g/l YE. The aerobic shake flasks with air permeable lid were incubated at 30° C. and 260 rpm. Initial OD at λ=600 nm in the cultures was 0.764.

[4] = test system: isobutanol producing NYLA84 strain; test: Shake flask cultivations with nicotinic acid, vitamin solution or YEP (Example 8); type: cell-based, Saccharomyces cerevisiae
Procedure: as §1

[5] = test system: BP1063 isobutanol producing strain; details: bioreactor; NA concentrations of as low as 5 mg/L; vs water control
Procedure: One liter (1 L) of inoculum medium contained: 6.7 g, Yeast Nitrogen Base w/o amino acids (Difco 0919-15-3); 2.8 g, Yeast Synthetic Drop-out Medium Supplement Without histidine, leucine, tryptophan and uracil (Sigma Y2001); 20 mL of 1% (w/v) L-leucine; 4 mL of 1% (w/v) L-tryptophan; 1 mL of ergosterol and Tween 80 solution; 3 g of ethanol; 3 g of glucose. Preparation of ergosterol and Tween 80 solution: for 10 mL of the solution, 100 mg of ergosterol was dissolve in 5 mL 100% EtOH and 5 mL Tween 80. It was heated at 70° C. for 10 minutes.
A 125 mL shake flask was inoculated directly from a frozen vial by pipetting the whole vial culture (approx. 1 ml) into 10 mL of the inoculum medium. The flask was incubated at 260 rpm and 30° C. The strain was grown overnight until OD about 1.0. At this point four 2 L baffled shake flasks with 90 mL of the inoculum medium were inoculated from the overnight culture. […]
OD at λ=600 nm was determined in a HEλIOS a spectrophotometer (Thermo Electron Corporation, USA). […] Glucose and fermentation by-product analysis were determined by HPLC utilizing a Shodex® SH-1011 column with a Shodex® SH-G guard column (both available from Waters Corporation, Milford, Mass.), with diode array (DA) and refractive index (RI) detector. […]
Isobutanol was measured in oleyl alcohol, culture broth, and off-gas samples by GC method, HPLC method, and mass-spectrometry, respectively.

[6] = aerobic shake flasks, thiamine 100 mg/L
[7] = aerobic (25.8 h) and anaerobic (24.2 h) shake flasks
[8] = isobutanol, glucose consumption, biomass
[9] = aerobic and anaerobic shake flasks, sampled after 6.3 and 20.8 h

| Compound | initial qP compared with yeast extract ([1]; aerobic flasks, thiamine 100 mg/L vs yeast extract 10 g/L) | initial qP higher than the control ([1]; aerobic flasks, thiamine 100 mg/L, vs water control) | initial qP (specific isobutanol production rate) ([1]; aerobic flasks, thiamine final concentration 100 mg/L, first 24 fermentation hours) | accumulation of keto-isovaleric acid in control shake flasks compared to flasks with the addition ([1]; aerobic shake flasks) | isobutanol titers at the three concentrations ([1]; aerobic shake flasks, final concentrations of 6, 60, and 100 mg/L thiamine) | final biomass concentration compared to the control [1, 6] | titers of isobutanol compared to the control [1, 6] | biomass formation compared to the negative control [2, 7] | consumption of glucose compared to the negative control [2, 7] | isobutanol production compared to the negative control [2, 7] | increase under anaerobic versus aerobic conditions [2, 8] | biomass titers compared to control culture without NA [3] | isobutanol titers compared to control culture without NA [3] | biomass formation compared to the negative control [4, 9] | consumption of glucose compared to the negative control [4, 9] | isobutanol production compared to the negative control [4, 9] | increase under anaerobic versus aerobic conditions [4, 8] | final isobutanol titers in the aqueous phase [5] |
| --- | --- | --- | --- | --- | --- | --- | --- | --- | --- | --- | --- | --- | --- | --- | --- | --- | --- | --- |
| Cc1ncc(C[n+]2csc(CCO)c2C)c(N)n1 [thiamine] | about the same as achieved with yeast extract | 75% | 0.14 g/g/h | several times higher | similar | higher | higher |  |  |  |  |  |  |  |  |  |  |  |
| O=C(O)c1cccnc1 [NA, nicotinic acid] |  |  |  |  |  |  |  | increased | increased | increased | significantly more pronounced under anaerobic than under aerobic conditions | significantly increased | significantly increased | increased | increased | increased | significantly more pronounced under anaerobic than under aerobic conditions | improved |
